# Assay: gradient 5% acetonitrile 3 min, to 50% in 2 min, to 85% in 15 min, held 3 min, 100 µL/min
# Details: column: Zorbax Extend-C18 2.1 x 50 mm; eluents: water / acetonitrile, 0.1% formic acid
# Outline: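 In both positive and negative ionization mode, a quadrupole time-of-flight mass spectrometer coupled to HPLC analyzed pure standards run in mixtures of ~100 molecules. The Zorbax Extend-C18 column (2.1 × 50 mm, 1.8 μm) was operated at 100 μL/min with water and acetonitrile, each containing 0.1% formic acid. The dead volume was 40 μL and the dwell volume 900 μL. Retention time came from adduct peaks that were computationally picked and individually inspected by hand.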
row,RP-LC retention time,SMILES
1,726 s,CC12CC(c3ccccc3O1)C(C(=O)N1CCCCC1)C(=O)N2 (stereo not drawn)
2,756 s,NC(=O)Cc1ccc2c(c1)[nH]c1ccccc12
3,1040 s,COc1cc(CNS(=O)(=O)c2cccc(-c3nc(-c4ccccc4)no3)c2)cc(OC)c1OC
4,1150 s,CCc1ccc(S(=O)(=O)c2cnc(N3CCCC(C)C3)nc2N)cc1 (stereo not drawn)
5,592 s,COCCNC(=O)CN1CCN(c2cc(C(=O)O)c3cc(NC(=O)c4ccccc4)ccc3n2)CC1
6,960 s,CCn1c(=O)c2ccccc2n(Cc2nc(-c3ccc4c(c3)OCO4)no2)c1=O
7,1060 s,O=C(CN1CCCCC1c1nc(-c2cccs2)no1)NCc1ccc(Cl)cc1 (stereo not drawn)
8,1200 s,CCOc1ccc(NS(=O)(=O)c2ccccc2-c2nc(-c3ccc(F)cc3)no2)cc1
9,897 s,CCCN(CCC)S(=O)(=O)c1cc(-c2nnc(C)o2)co1
10,620 s,CCN1CCCC1CNS(=O)(=O)c1ccc2c(c1)CCN2C(=O)CCC(=O)N1CCCCC1 (stereo not drawn)
11,679 s,COCc1nncn1C1CCN(S(=O)(=O)c2cc(F)ccc2OC)CC1
12,937 s,O=C(Nc1ccccc1F)N1CCCC1c1nc(-c2ccc(F)cc2F)no1 (stereo not drawn)
13,606 s,O=C(NCCCN1CCCCC1)C1CCN(c2cnn(Cc3ccccc3)c(=O)c2)CC1
14,662 s,COc1ccc(Cl)cc1N1CC(c2nc3ccccc3n2CC(=O)N2CCOCC2)CC1=O (stereo not drawn)
15,755 s,CCOC(=O)N1CCN(C(=O)C2CC2c2ccc(F)cc2)CC1 (stereo not drawn)
16,779 s,Cc1nc(C)c(-c2ccc(SCC(=O)N3CCCc4ccccc43)nn2)s1
17,665 s,Cc1ccnc(N2CCC(C(=O)NCCCN3CCCc4ccccc43)CC2)n1
18,821 s,Cc1ccc(CNC(=O)C2CCN(c3ccc(SCc4ccccc4)nn3)CC2)cc1
19,884 s,CCCn1ccc2sc(C)c(C(=O)N(CC)Cc3ccccc3)c2c1=O
20,795 s,CCN(CC)S(=O)(=O)N1CCC(C(=O)NCc2ccc(OC)cc2)CC1
21,979 s,CC1CCN(c2nccnc2Oc2ccc(C(=O)NCc3ccco3)cc2)CC1
22,591 s,Cc1ccc(-n2c(=O)n(CC(=O)NCCCN3CCOCC3)c3cccnc32)cc1

row,RP-LC retention time,SMILES
1,724 s,Cc1ccc(C)c(NC(=O)CN2CCC(c3nc(-c4cccs4)no3)CC2)c1
2,685 s,O=C1CN(S(=O)(=O)c2cccc3cccnc23)C2(CCCC2)CN1
3,883 s,CCOc1ccc(NS(=O)(=O)c2cc(C(=O)N3CCN(c4ccccc4)CC3)n[nH]2)cc1
4,661 s,Cc1ccc(CN2CCCC(c3nc(C(C)C)no3)CCNC(=O)CC2)s1 (stereo not drawn)
5,1030 s,Cc1cccc(-c2noc(Cn3c(=O)n(-c4ccccc4F)c(=O)c4sccc43)n2)c1
6,912 s,O=C(Cn1ccc2ccc(N3CCOCC3)nc21)NCc1ccc(F)cc1Cl
7,911 s,O=C(C1CCN(c2nc3ccc(-c4cccs4)nc3s2)CC1)N1CCCCC1
8,930 s,COc1ccc(-c2noc(Cn3cnc4c(cnn4-c4ccc(F)cc4)c3=O)n2)cc1OC
9,648 s,CCOc1ccc(NC(=O)N2CCN(c3cnn4c(C)nnc4c3)CC2)cc1
10,790 s,COc1cccc(-c2cc(C3CCN(C(=O)NC4CCCC4)CC3)[nH]n2)c1
11,833 s,CCOc1ccccc1-c1noc(-c2cn(C)c3ccc(F)cc3c2=O)n1
12,839 s,CCC1Oc2ccc(S(=O)(=O)N3CCC(C(=O)NCc4ccccc4OC)CC3)cc2NC1=O (stereo not drawn)
13,1040 s,O=c1ccc(-c2ccc(Cl)cc2)nn1CCc1nc(-c2ccc3c(c2)OCO3)no1
14,818 s,O=c1n(Cc2ccccc2)nc2n1CCN(S(=O)(=O)c1ccc3c(c1)OCCO3)CC2
15,762 s,CCCCNC(=O)C1CC(=O)N(CCc2c[nH]c3ccc(C)cc23)C1 (stereo not drawn)
16,859 s,CCc1cccc(NC(=O)Cn2ncc3c(c2=O)N(CC2CC2)C(=O)CS3)c1
17,794 s,CCC1Oc2ccc(S(=O)(=O)N3CCC(C(=O)Nc4ccccc4)CC3)cc2NC1=O (stereo not drawn)
18,741 s,COCc1c(C(=O)O)nnn1-c1ccc(C)c(F)c1
19,866 s,CC(C)n1c(N2CCCN(C(=O)c3ccc(Br)o3)CC2)cc(=O)n(C(C)C)c1=O
20,788 s,CNCC[C@H](Oc1cccc2ccccc12)c1cccs1
21,782 s,COc1ccc(NC(=O)C2CCN(S(=O)(=O)c3ccc4c(c3)CCCC(=O)N4)CC2)cc1Cl
22,886 s,CCOCCCNC(=O)C1CCCN(c2ncc(-c3ccc(F)cc3)cn2)C1 (stereo not drawn)

row,RP-LC retention time,SMILES
1,690 s,CCOc1ccc(NC(=O)Cn2nc3n(c2=O)CCCCC3)cc1
2,782 s,O=C(CSc1nnc(-c2ccccc2F)o1)NC1CCCCC1
3,738 s,Cc1ccc(Nc2cc(C)nc(N3CCN(C(=O)Nc4ccccc4)CC3)n2)cc1
4,757 s,COc1cccc(CNC(=O)C2CCN(S(=O)(=O)c3ccc4c(c3)NC(=O)C(C)O4)CC2)c1 (stereo not drawn)
5,941 s,CCc1nn2c(CNS(=O)(=O)c3cc(C)cc(C)c3)c(-c3ccccc3)nc2s1
6,813 s,CC1CCN(S(=O)(=O)c2ccc3nn(CC#N)c(=O)n3c2)CC1
7,660 s,Cc1cccc(N2CC(C(=O)N(C)C)CC2=O)c1 (stereo not drawn)
8,919 s,Cn1c(C(=O)Nc2ccccc2F)cc2c(=O)oc3ccccc3c21
9,582 s,Cc1nn(C)c(C)c1CCN(C)C(=O)C1CCCCC(=O)N1C (stereo not drawn)
10,604 s,COc1ccccc1-c1c(C)nn2c(N3CCN(c4ccccn4)CC3)cc(C)nc12
11,1100 s,CCc1ccc(S(=O)(=O)N2CC=C(c3cn(C)c4ncccc34)CC2)cc1
12,693 s,Cc1cc(C(=O)NCCN2CCOCC2)nc2cc(-c3ccccn3)nn12
13,687 s,CC1CN2C=NC(N3CCN(C(=O)Nc4ccc(C(F)(F)F)cc4)CC3)=CC2=N1 (stereo not drawn)
14,1130 s,O=C(c1nnc(-c2ccc(S(=O)(=O)N3CCCCC3)cc2)o1)N1CCN(c2ccccc2F)CC1
15,665 s,O=C(Nc1cccn2c(C3CCC3)nnc12)c1ccncc1
16,860 s,Cc1[nH]c(C(=O)N2CCCC(C(=O)NCc3ccccc3)C2)c(C)c1C(=O)OC(C)C (stereo not drawn)
17,679 s,CCN(CC)C(=O)[C@@H]1[C@H](c2cc(OC)c(OC)c(OC)c2)c2cc3c(cc2[C@H](O)[C@H]1CO)OCO3
18,854 s,COc1ccc(OC)c(CNC(=O)c2nnc(-c3ccc(S(=O)(=O)N(C)C)cc3)o2)c1
19,611 s,Cc1nccn1C1CN(C(=O)CCCc2c[nH]c3ccccc23)C1
20,724 s,COc1ccc(Cl)cc1NS(=O)(=O)c1cc2n(c1)CCCN(C)C2=O
21,690 s,CCCNC(=O)C1CCCN(c2ccc(SCC(=O)Nc3ccc(C(F)(F)F)cc3)nn2)C1 (stereo not drawn)
22,842 s,CCC(c1cccs1)N1C(=O)[C@H]2CN(S(=O)(=O)c3ccc(C)cc3C)C[C@H]2C1=O (stereo partly drawn)

row,RP-LC retention time,SMILES
1,1040 s,Cc1sc(NC(=O)COc2ccc(Cl)cc2)nc1-c1ccc2c(c1)N(C)C(=O)CO2
2,872 s,CCOc1ccc(NC(=O)N2CCCC(C)(C(=O)NCc3cccc(OC)c3)C2)cc1 (stereo not drawn)
3,890 s,CCC(C)NC(=O)CCn1c(=O)c2ccccc2n2c(=O)n(Cc3ccc(F)cc3)nc12 (stereo not drawn)
4,1110 s,CCCn1cc(C2=CCN(S(=O)(=O)c3cccc(Cl)c3)CC2)c2cccnc21
5,1020 s,O=C(c1cccs1)N1CCCC(c2ccnc(-c3ccccc3)n2)C1 (stereo not drawn)
6,557 s,CN(C)C[C@@H]1CN(c2ccncn2)C[C@H]1NC(=O)c1nccc2ccccc12
7,783 s,Nc1ccc(C(=O)c2ccccc2)cc1[N+](=O)[O-]
8,1070 s,CCN1CCn2cc(S(=O)(=O)Nc3ccccc3F)cc2C1=O
9,610 s,CCCOC(=O)c1[nH]c2c(c1C)C(=O)CC(c1cc(OC)c(OC)c(OC)c1)C2 (stereo not drawn)
10,841 s,CC1CCCN(c2nc(=O)n(CC(=O)Nc3ccc(F)cc3)c3ccccc23)C1 (stereo not drawn)
11,783 s,CCOC(=O)c1ccc(NC(=O)C2CCN(S(=O)(=O)c3ccc4[nH]c(=O)ccc4c3)CC2)cc1
12,618 s,O=S(=O)(NCC(c1cccnc1)N1CCN(c2ccc(F)cc2)CC1)c1cccs1 (stereo not drawn)
13,965 s,Cc1cccc(-c2nocc2CCC(=O)NC(C)c2ccc(F)cc2)c1 (stereo not drawn)
14,1160 s,COC(=O)c1cnc(N2CCN(c3ccccc3)CC2)c2ccccc12
15,562 s,CCOC(=O)c1cnc2c(C)c(Cl)ccc2c1NCCN(C)C
16,704 s,Cn1c(=O)n(CC(=O)O)c(=O)c2c1nc1n2CCN1c1ccc(F)cc1
17,855 s,COc1ccc(-c2cc(C(F)(F)F)n3nc(C(=O)O)c(Cl)c3n2)cc1OC
18,836 s,Cc1ccc(Sc2cncc3sc(C(N)=O)cc23)cc1
19,661 s,CC1(C)CC(NC(=O)COc2ccc(Cl)cc2Br)CC(C)(C)N1
20,679 s,Clc1ccc(-c2noc(CN3CCN(c4ccccn4)CC3)n2)cc1
21,679 s,Cc1ccc(CNC(=O)C2CCN(S(=O)(=O)c3c(C)[nH]c(C)c3C(=O)N3CCCC3)CC2)o1

row,SMILES,RP-LC retention time
1,CCN1CCN(C(=O)Cc2c(C)nc3nc(-c4ccc(C(C)(C)C)cc4)nn3c2C)CC1,673 s

# From the METLIN SMRT retention time set (Domingo-Almenara et al. 2019)
